The record followed here is patent publication US20210379056A1, “SUBSTITUTED PYRAZOLE FUSED RING DERIVATIVE, PREPARATION METHOD THEREFOR, AND APPLICATION THEREOF” (Applied Pharmaceutical Science, Inc., priority 2018, published 2021).

Structures are written as SMILES. Where a name gives a salt, the structure may show the parent alone. Read-outs that look alike come from different tables or passages of the source.

Assay [1] concerns TT Cell. Put plainly: Cell inhibitory activity test (CCK8). The format is cell-based. Particulars: Homo sapiens, TT, Table 3, 72 hours incubation. In a few lines:
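Cells seeded at 4000/well, pre-incubated 24 h (37 °C, 5% CO2), then exposed to graded compound concentrations for 72 h. Viability read by CCK8 at 450 nm after 1-2 h; IC50 fitted from concentration-absorbance data.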

Assay [2] has as its target T1, RET (V804L), activated (Homo sapiens, UniProt P07949, V804L).
T1 construct: purchased Signalchem R02-12BG-10
Put plainly: HTRF kinase activity test, RET V804L. The class given is biochemical. Particulars: Table 2. Here is the method: (§1) This test combined peptide substrates and a single proprietary monoclonal antibody with HTRF technology, which was a highly sensitive and stable technology for detecting molecular interactions of proteins. The enzyme phosphorylates the substrate, then the Eu-labeled antibody binds to the phosphorylated substrate, and streptavidin-XL665 binds to all substrates. The TR-FRET signal was generated by the HTRF principle. […] Based on this, the inhibitory effect was evaluated.
(§2) The other compounds were diluted 3-fold gradiently with DMSO from the 10 mM stock solution to a total of 10 concentrations respectively.
(§3) Adding 4 volumes of distilled water to 1 volume of enzyme buffer 5×; 5 mM MgCl2; 1 mM DTT.
(§4) b) centrifuging the compound plate for 1 minute at 1000 g.
(§5) c) sealing the test board.
(§6) f) adding 4 μl of 1× kinase buffer to each well of the test plate, centrifuging the sample plate at 1000 g for 30 seconds, and placing it at room temperature for 10 minutes.
g) preparing a solution of 5× TK-substrate-biotin ([…]) in kinase buffer and 5×ATP (50 μM) in kinase buffer respectively. […]
(§7) The inhibition rate % was calculated as follows:
(§8) Inhibition rate %=[1−(fluorescence signal value of test compound−fluorescence signal value of positive control)/(average ratio of negative control−average ratio of positive control)]*100%
Ratio: generated from the measured fluorescence signal value […]
For orientation: In TR-FRET formats the signal depends on donor and acceptor labels being close together.

Assay [3] has as its system RET wild-type, mutant and/or fusion-type. Put plainly: Overall statement on RET inhibitory activity (summary of Table 3). Particulars: statement in words summarising Table 3. The source says:
As shown in the above table, the example compounds of the present disclosure have improved inhibitory activity against RET wild-type, mutant and/or fusion-type.

Assay [4] concerns the target T2, Ret wt (Homo sapiens, UniProt P07949).
T2 construct: purchased Invitrogen PV3082
As to the kind of experiment: HTRF kinase activity test, RET wild type. The format is biochemical. Here is the method: as §1, §2, §3, §4, §5, §6
(§9) g) preparing a solution of 5× TK-substrate-biotin ([…]) in kinase buffer and 5×ATP (50 μM) in kinase buffer respectively.
(§10) h) starting the reaction by adding 2 μl STK-substrate-biotin and 2 μl ATP (prepared in the step g).
(§11) i) centrifuging the sample plate for 30 seconds at 1000 g. Sealing the test board and placing it at room temperature for 30 minutes.
(§12) ) centrifuging at 1000 g for 30 seconds and placing it at room temperature for 1 hour.
as §7, §8
(§13) Ratio: generated from the measured fluorescence signal value
(§14) The average ratio of the positive control is the average ratio of the positive control (200 nM AT13148) in the sample plate;
(§15) The average ratio of negative controls is the average ratio of negative controls (0.1% DMSO) in the sample plate.
(§16) GraphPad 6.0 was used to fit the logarithm of the % inhibition rate and the compound concentration into a nonlinear regression (dose response−variable slope) to calculate the IC50 value.

Assay [5] addresses T3, RET (V804M) (Homo sapiens, UniProt P07949, V804M).
T3 construct: purchased Signalchem R02-12GG
Put plainly: HTRF kinase activity test, RET V804M. The class given is biochemical. Particulars: Table 3; read-out: RET Enzyme (V804M) IC50. Here is the method:
This test combined peptide substrates and a single proprietary monoclonal antibody with HTRF technology, which was a highly sensitive and stable technology for detecting molecular interactions of proteins. The enzyme phosphorylates the substrate, then the Eu-labeled antibody binds to the phosphorylated substrate, and streptavidin-XL665 binds to all substrates. The TR-FRET signal was generated by the HTRF principle. Once the inhibitor (test compound) was added, a weaker TR-FRET signal is obtained. Based on this, the inhibitory effect was evaluated.
as §2, §3
a) Transferring 10 nl of the compound dilution (prepared in 5.2) to each well of the test plate (784075, Greiner);
as §4, §5
d) preparing 5×Ret wt (0.2 ng/μl) and 5×Ret V804L (0.5 ng/μl)/5×Ret V804M (0.5 ng/μl) in 1× kinase buffer respectively.
e) adding 2 μl of 5×Ret wt or 2 μl of Ret V804L/RET V804M to a 384-well test plate (784075, Greiner).
as §6, §9, §10, §11
j) preparing 4×Sa-XL 665 (250 nM) in HTRF detection buffer.
k) adding 5 μl of Sa-XL 665 and 5 μl of TK-antibody-Cryptate (prepared in the step i) to each well of the test plate.
as §12
m) reading the fluorescence signal values at 615 nm (Cryptate) and 665 nm (XL665) on the Envision 2104 plate reader.
Calculating the ratio of each hole (665 nm/615 nm).
as §7, §8, §13, §14, §15, §16

The mark [6] stands for this setting: Table 2, read-out: IC50 (nM) RET wt.
[7] abbreviates: Table 3, read-out: RET Enzyme (wild type) IC50.

T2 sequence (P07949 29-1114): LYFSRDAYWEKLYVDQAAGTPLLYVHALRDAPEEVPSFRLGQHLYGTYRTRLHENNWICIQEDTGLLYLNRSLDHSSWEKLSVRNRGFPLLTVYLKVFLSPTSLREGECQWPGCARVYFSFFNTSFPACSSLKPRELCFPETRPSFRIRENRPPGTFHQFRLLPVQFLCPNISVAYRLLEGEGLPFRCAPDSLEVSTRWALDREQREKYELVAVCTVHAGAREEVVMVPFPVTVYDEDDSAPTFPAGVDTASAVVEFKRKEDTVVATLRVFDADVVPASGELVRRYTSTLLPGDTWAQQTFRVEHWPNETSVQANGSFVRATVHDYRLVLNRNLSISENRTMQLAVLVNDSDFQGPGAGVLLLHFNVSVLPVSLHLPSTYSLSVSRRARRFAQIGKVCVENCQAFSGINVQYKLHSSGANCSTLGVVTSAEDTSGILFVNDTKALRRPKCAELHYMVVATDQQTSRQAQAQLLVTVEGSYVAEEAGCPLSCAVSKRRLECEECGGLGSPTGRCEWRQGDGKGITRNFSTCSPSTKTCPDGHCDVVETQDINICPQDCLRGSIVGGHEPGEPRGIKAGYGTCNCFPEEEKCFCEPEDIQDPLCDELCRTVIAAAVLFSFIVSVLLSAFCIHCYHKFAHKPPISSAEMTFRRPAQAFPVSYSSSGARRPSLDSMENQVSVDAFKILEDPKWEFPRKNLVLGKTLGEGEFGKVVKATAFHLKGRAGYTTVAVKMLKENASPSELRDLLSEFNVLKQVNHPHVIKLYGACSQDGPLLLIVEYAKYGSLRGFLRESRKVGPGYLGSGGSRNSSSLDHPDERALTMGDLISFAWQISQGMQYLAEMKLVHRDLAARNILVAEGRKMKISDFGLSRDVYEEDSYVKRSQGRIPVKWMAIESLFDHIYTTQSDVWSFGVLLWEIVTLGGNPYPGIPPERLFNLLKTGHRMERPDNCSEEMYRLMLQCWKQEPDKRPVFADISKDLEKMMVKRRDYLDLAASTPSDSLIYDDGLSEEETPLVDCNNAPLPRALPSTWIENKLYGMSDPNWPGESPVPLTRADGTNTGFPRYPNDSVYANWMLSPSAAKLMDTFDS
T3 sequence (P07949 29-1114 V804M): as the sequence (P07949 29-1114) above, with V776M counted along it
T1 sequence (P07949 29-1114 V804L): as the sequence (P07949 29-1114) above, with V776L counted along it

A word on the IC50: it is the concentration needed to halve the response being measured. As to `Cn1cc(-c2cc(-c3ccc(N4CCN(C(=O)Cc5ccc(F)cn5)CC4)nc3)c3c(C#N)c(N)nn3c2)cn1` [APS069, 2-amino-4-(6-(4-(2-(5-fluoropyridin-2-yl)acetyl)piperazin-1-yl)pyridin-3-yl)-6-(1-methyl-1H-pyrazol-4-yl)pyrazolo[1,5-a]pyridine-3-carbonitrile], the IC50 is 28.8 nM in assay [1], 0.124 nM in assay [2], 0.325 nM in assay [4] (setting [6]) and less than 1 nM in assay [4] (setting [7]). The “inhibitory activity against RET wild-type, mutant and/or fusion-type” value (shortened to “inhibitory activity”) in assay [3] was “excellent activity”.
As to `CCOCCOc1cc(-c2ccc(N3CC4CC(C3)N4Cc3ccc(OC)nc3)nc2)c2c(C#N)c(N)nn2c1` [APS109, 2-amino-6-(2-ethoxyethoxy)-4-(6-(6-((6-methoxypyridin-3-yl)methyl)-3,6-diazabicyclo [3.1.1]heptan-3-yl)pyridin-3-yl)pyrazolo[1,5-a]pyridine-3-carbonitrile], the values for the IC50 in assay [1], in assay [5] and in assay [4] (setting [7]) were 57.9 nM, less than 1 nM and less than 1 nM, respectively. Further, in assay [3], the “inhibitory activity” value was “excellent activity”.
For `COc1ccc(CN2C3CC2CN(c2ccc(-c4cc(OCC(C)(C)O)cn5nc(N)c(C#N)c45)cn2)C3)cn1` [APS089], the IC50 worked out at 18.6 nM in assay [1], 1.6 nM in assay [5] and 1.8 nM in assay [4] (setting [7]). For the same compound, the “inhibitory activity” value in assay [3] is listed as “excellent activity”.
For `CCOc1cc(-c2ccc(N3CC4CC(C3)N4Cc3ccc(OC)nc3)nc2)c2c(C#N)c(N)nn2c1` [APS095], in that order: 38.6 nM, less than 1 nM, less than 1 nM and “excellent activity”.
Taken in the same sequence, the figures for `COc1ccc(CN2C3CC2CN(c2cnc(-c4cc(OC[C@@H]5CNCCO5)cn5nc(N)c(C#N)c45)cn2)C3)cn1` [APS087, 2-amino-4-(5-(6-((6-methoxypyridin-3-yl)methyl)-3,6-diazabicyclo[3.1.1]heptan-3-yl)pyrazin-2-yl)-6-(((S)-morpholin-2-yl)methoxy)pyrazolo[1,5-a]pyridine-3-carbonitrile trifluoroacetate] were less than 1 nM, less than 1 nM, less than 1 nM and “excellent activity”.
On to `Cn1cc(-c2cc(-c3ccc(N4CCC(Cc5ccccn5)CC4)nc3)c3c(C#N)c(N)nn3c2)cn1` [APS070, 2-amino-6-(1-methyl-1H-pyrazol-4-yl)-4-(6-(4-(pyridin-2-yl-methyl)piperidin-1-yl)pyridin-3-yl)pyrazolo[1,5-a]pyridine-3-carbonitrile], for which the IC50 in assay [1] is 15.6 nM; in assay [2], 0.0759 nM; in assay [4] (setting [6]), 0.418 nM; in assay [4] (setting [7]), less than 1 nM. The “inhibitory activity” value in assay [3] is listed as “excellent activity”.
For `COCCOc1cc(-c2ccc(N3CC4CC(C3)N4Cc3cnc(OC)c(Cl)c3)nc2)c2c(C#N)c(N)nn2c1` [APS108, 2-amino-4-(6-(6-((5-chloro-6-methoxypyridin-3-yl)methyl)-3,6-diazabicyclo[3.1.1]heptane-3-yl)pyridin-3-yl)-6-(2-methoxyethoxy)pyrazolo[1,5-a]pyridine-3-carbonitrile], the IC50 in assay [1] was 10.7 nM; in assay [5], less than 1 nM; in assay [4] (setting [7]), less than 1 nM. Besides, the “inhibitory activity” value in assay [3] is recorded as “excellent activity”.
For `COc1ccc(CN2C3CC2CN(c2ccc(-c4cc(OCCOC5CC5)cn5nc(N)c(C#N)c45)cn2)C3)cn1` [APS113, 2-amino-6-(2-cyclopropoxyethoxy)-4-(6-(6-((6-methoxypyridin-3-yl)methyl)-3,6-diazabicyclo[3.1.1]heptan-3-yl)pyridin-3-yl)pyrazolo[1,5-a]pyridine-3-carbonitrile], the values for the IC50 in assay [1], in assay [5] and in assay [4] (setting [7]) were 83.5 nM, less than 1 nM and less than 1 nM, respectively. For the same compound, in assay [3], the “inhibitory activity” value is reported as “excellent activity”.
